According to patent US20250197393A1, “INTEGRIN INHIBITOR AND USES THEREOF” (Pliant Therapeutics, Inc., priority 2023, published 2025):
Structures can show the parent of a compound that is named as a salt. Each block holds one compound with its values, some of them ahead of it.

Columns and labels:
Format in all cases: physicochemical
[1] = Water activity experiments in MeOH/water (relative stability of hydrate Pattern A and hydrate Pattern B); settings: methanol/water
Method: The relative stability of the hydrate Pattern A and the hydrate Pattern B was investigated using water activity experiments in MeOH/water systems. About 5 mg of (S)-4-((2-methoxyethyl)(4-(5,6,7,8-tetrahydro-1,8-naphthyridin-2-yl)butyl)amino)-2-(quinazolin-4-ylamino)butanoic acid L-tartaric acid cocrystal Pattern A and 5 mg of (S)-4-((2-methoxyethyl)(4-(5,6,7,8-tetrahydro-1,8-naphthyridin-2-yl)butyl)amino)-2-(quinazolin-4-ylamino)butanoic acid L-tartaric acid cocrystal Pattern B were added to 0.1-0.5 mL saturated solutions of the methanol/water system. Obtained suspensions were stirred at 5° C., 25° C. and 50° C. for up to 21 days, respectively. Solid parts (wet cakes) were isolated by centrifugation filtration and investigated by XRPD.

[2] = Equilibration of Pattern C suspension in IPA/water at 5° C.; settings: IPA/water mixture, equilibration at 5° C., after 3 days
Method: Method 2: (S)-4-((2-methoxyethyl)(4-(5,6,7,8-tetrahydro-1,8-naphthyridin-2-yl)butyl)amino)-2-(quinazolin-4-ylamino)butanoic acid L-tartaric acid cocrystal Pattern C was prepared using the following procedure. 200 mg of (S)-4-((2-methoxyethyl)(4-(5,6,7,8-tetrahydro-1,8-naphthyridin-2-yl)butyl)amino)-2-(quinazolin-4-ylamino)butanoic acid L-tartaric acid cocrystal Pattern A (see Example 1) was dissolved in 1.8 mL of IPA/water (7:3, v:v) at 50° C. The obtained thin suspension was filtered through a 0.45 μm syringe membrane filter to obtain a clear solution. The clear solution was cooled to 5° C. at 0.1° C./min after stirring at 50° C. for about 30 min. After stirred at 5° C. for about 2 days, a suspension was obtained. Solids were collected by centrifugation and investigated by XRPD. A low crystallinity Pattern C was obtained.
The suspension was kept stirring at 5° C. for another 3 days. Solids were collected by centrifugation and investigated by XRPD. A low crystalline Pattern B was obtained.

[3] = Bulk stability of solid under temperature/humidity stress (HPLC, appearance, XRPD)
Method: Bulk stability of (S)-4-((2-methoxyethyl)(4-(5,6,7,8-tetrahydro-1,8-naphthyridin-2-yl)butyl)amino)-2-(quinazolin-4-ylamino)butanoic acid L-tartaric acid cocrystal Pattern A was evaluated at 25° C./92.5% RH in an open container, at 40° C./75% RH in an open container, and at 60° C. in a closed container over 1 week and 4 weeks.
However, it became deliquescent after being stressed at 25° C./92.5% RH in an open container and at 40° C./75% RH in an open container after 1 week.

[4] = Solubility at 37° C. in aqueous and biorelevant media; settings: for Solubility (mg/ mL) 2 h / Solubility (mg/ mL) 24 h: target 250 mg/mL (in free form)
Method: To prepare the samples of (S)-4-((2-methoxyethyl)(4-(5,6,7,8-tetrahydro-1,8-naphthyridin-2-yl)butyl)amino)-2-(quinazolin-4-ylamino)butanoic acid L-tartaric acid cocrystal Pattern A, 80.6 mg was weighed into a 2 mL glass vial. Next, 0.18 mL of solubility medium was added. The salt amount used is equivalent to 45 mg of the amorphous free form. Obtained suspensions/solutions were stirred at 37° C. at 400 rpm and sampled at 2 h and at 24 h. The samples were centrifuged at 37° C. at 14,000 rpm for 5 min. Supernatants were analyzed by HPLC and pH meter for solubility and pH value, respectively. […]

[5] = Bulk stability of solid under temperature/humidity stress (HPLC, appearance, XRPD); settings: for Bulk appearance (color change / deliquescence): Solid state, open container, 1 week
[6] = Solid state, 60° C., closed container, 1 week
[7] = pH 4.5 acetate buffer (50 mM), 37° C.
[8] = pH 6.8 phosphate buffer (50 mM), 37° C.

water activity (a.w.) at which the pattern was obtained ([1]; 5° C.): 1.0
water activity (a.w.) at which the pattern was obtained ([1]; 25° C.): 1.0
SMILES: COCCN(CCCCc1ccc2c(n1)NCCC2)CC[C@H](Nc1ncnc2ccccc12)C(=O)O [Pattern B, (S)-4-((2-methoxyethyl)(4-(5,6,7,8-tetrahydro-1,8-naphthyridin-2-yl)butyl)amino)-2-(quinazolin-4-ylamino)butanoic acid]

form conversion [2]: converts to Pattern B
SMILES: COCCN(CCCCc1ccc2c(n1)NCCC2)CC[C@H](Nc1ncnc2ccccc12)C(=O)O [Pattern C, (S)-4-((2-methoxyethyl)(4-(5,6,7,8-tetrahydro-1,8-naphthyridin-2-yl)butyl)amino)-2-(quinazolin-4-ylamino)butanoic acid]

purity decrease ([3]; 25° C./92.5% RH in an open container, 4 weeks): 0.6%
physical stability ([3]; 60° C. in a closed container over 4 weeks): physically stable
purity decrease ([3]; 60° C. in a closed container, 4 weeks): 1.1%
Bulk (HPLC) purity, 316 nm ([3]; Solid state, 25° C./92.5% RH, open container, 1 week): 99.7%
Bulk (HPLC) purity, 316 nm ([3]; Solid state, 25° C./92.5% RH, open container, 4 weeks): 99.2%
Bulk (HPLC) purity, 316 nm ([3]; Solid state, 40° C./75% RH, open container, 1 week): 98.7%
Bulk (HPLC) purity, 316 nm ([3]; Solid state, 40° C./75% RH, open container, 4 weeks): 97.3%
Bulk (HPLC) purity, 316 nm [3, 6]: 99.3%
Bulk (XRPD) [3, 6]: No form change
Bulk (HPLC) purity, 316 nm ([3]; Solid state, 60° C., closed container, 4 weeks): 98.7%
pH of supernatant at 24 h ([4]; FaSSGF, pH 1.6, 37° C.): (5.8)
Solubility (mg/ mL) 2 h ([4]; FaSSGF, pH 1.6, 37° C.): >247 mg/mL
Solubility (mg/ mL) 24 h ([4]; FaSSGF, pH 1.6, 37° C.): >247 mg/mL
pH of supernatant at 24 h ([4]; FaSSIF-v1, pH 6.5, 37° C.): (5.9)
Solubility (mg/ mL) 2 h ([4]; FaSSIF-v1, pH 6.5, 37° C.): >213 mg/mL
Solubility (mg/ mL) 24 h ([4]; FaSSIF-v1, pH 6.5, 37° C.): >214 mg/mL
pH of supernatant at 24 h ([4]; FeSSIF-v1, pH 5.0, 37° C.): (5.8)
Solubility (mg/ mL) 2 h ([4]; FeSSIF-v1, pH 5.0, 37° C.): >214 mg/mL
Solubility (mg/ mL) 24 h ([4]; FeSSIF-v1, pH 5.0, 37° C.): >218 mg/mL
pH of supernatant at 24 h ([4]; Water, 37° C.): (5.8)
Solubility (mg/ mL) 2 h ([4]; Water, 37° C.): >247 mg/mL
Solubility (mg/ mL) 24 h ([4]; Water, 37° C.): >247 mg/mL
pH of supernatant at 24 h ([4]; pH 1.2 HCl buffer, 37° C.): (1.6)
Solubility (mg/ mL) 2 h ([4]; pH 1.2 HCl buffer, 37° C.): >208 mg/mL
Solubility (mg/ mL) 24 h ([4]; pH 1.2 HCl buffer, 37° C.): >208 mg/mL
pH of supernatant at 24 h [4, 7]: (4.8)
Solubility (mg/ mL) 2 h [4, 7]: >228 mg/mL
Solubility (mg/ mL) 24 h [4, 7]: >228 mg/mL
pH of supernatant at 24 h [4, 8]: (6.7)
Solubility (mg/ mL) 2 h [4, 8]: >229 mg/mL
Solubility (mg/ mL) 24 h [4, 8]: >229 mg/mL
purity decrease ([5]; 40° C./75% RH in an open container, 4 weeks): 2.5%
Bulk appearance (color change / deliquescence) ([5]; 25° C./92.5% RH): deliquescent
Bulk appearance (color change / deliquescence) ([5]; 40° C./75% RH): deliquescent
SMILES: COCCN(CCCCc1ccc2c(n1)NCCC2)CC[C@H](Nc1ncnc2ccccc12)C(=O)O [Phosphate salt, hydrate, (S)-4-((2-methoxyethyl)(4-(5,6,7,8-tetrahydro-1,8-naphthyridin-2-yl)butyl)amino)-2-(quinazolin-4-ylamino)butanoic acid, reference compound]
